The numbers were not newly measured in US9668844B2, “Device for fixation at a dental site” (Colldent Y.A. Ltd., priority 2013, dated 2017), which cites them from elsewhere.

One series concerns bacteria. To be noted: see Paine, M. L. et al JADA 129 (1998).

For the molecule `F` [fluoride], under “acute”, the “acute lethal dose of fluoride (F)” value is 33 mg F/Kg body weight. Also, for the setting “chronic”, the chronic toxicity is 0.1 mg F/Kg.
Take `[F][Sn][F]` [stannous fluoride]: in the series with bacteria, the antibacterial activity entry is recorded as “has shown antibacterial activity”.
